Experimental data reported in patent publication US20130243867A1, “MICELLE COMPOSITIONS AND METHODS FOR THEIR USE” (University of South Florida (A Florida Non-Profit …, priority 2012, published 2013).

What was measured:
[1] = In vitro DOX release study (dialysis); assay type: physicochemical; conditions: 96 hours, either pH
Protocol: An in vitro DOX release study was also performed wherein D-LMNs, M-LMNs, and free DOX were each dispersed in 1 ml PBS buffer containing 1% Tween 20 (pH 7.3 or pH 5.1) and placed in a dialysis membrane (MWCO of 12000-14000 Da), The bag was then immersed in a tube containing 10 mL of the same PBS buffer ([…] or pH 5.1) and incubated at 37° C. At specific time intervals the DOX content in the PBS was analyzed using the UV-VIS spectrophotometer at 485 nm. Samples were all done in triplicate. M-LMNs were used as a blank. The release of the encapsulated DOX from D-LMNs was determined at pH 7.3, which is the physiological pH, and at pH 5.1, which represents the acidic pH inside endosomes, lysosomes, and solid tumors. One percent Tween 20 was used because it forms hydrophobic pockets, which can stabilize the released DOX from the D-LMNs, and helps to avoid aggregation of the hydrophobic DOX in the aqueous environment.

HEK293 cells = conditions: cells incubated with free DOX, literature; cited from earlier work

DOX released [1]: more than 90%
Structure (SMILES): COc1cccc2c1C(=O)c1c(O)c3c(c(O)c1C2=O)C[C@@](O)(C(=O)CO)C[C@@H]3O[C@H]1C[C@H](N)[C@H](O)[C@H](C)O1.Cl [free DOX, doxorubicin hydrochloride]
location of DOX in cells (HEK293 cells): found in the nuclei intercalated with DNA
